# According to ChEMBL document CHEMBL6121036, “Evaluation of Cereblon-Directing Warheads for the Development of Orally Bioavailable PROTACs” (J Med Chem, 2025):
# The source made the active and inactive calls. The rule behind the calls is not given here.
# Assays:
# [1] = Permeability in human MV4-11 cells assessed as cell availability index relative to lenalidomide; format: ADME, cell-based
# [2] = Chemical stability in human HD-MB03 cell culture media assessed as half life; format: physicochemical
# [3] = Chemical stability in human MV4-11 cell culture media assessed as half life; format: physicochemical
# [4] = AUC last in female CD1 mouse at 10 mg/kg, po measured upto 24 hrs by LC-MS/MS analysis; format: ADME, organism-based; details: in vivo
# [5] = molecular target: T1, Protein cereblon/Bromodomain-containing protein 4 (Homo sapiens, UniProt O60885+Q96SW2); assay: PROTAC activity at CRBN/Hibit-tagged BRD4 (unknown origin) expressed in HEK293 cells co-expressing LgBiT assessed as degradation rate incubated for 24 hrs by […] glo-max assay; format: cell-based
# [6] = Effect on BRD4 level in human MV4-11 cells assessed as fold change at 100 nM measured after 4 hrs; format: functional
# [7] = molecular target: T1, Protein cereblon/Bromodomain-containing protein 4; assay: PROTAC activity at CRBN/BRD4 in human MV4-11 cells assessed as degradation of BRD4 incubated for 4 hrs by immunoblot analysis; format: cell-based
# [8] = Effect on ZBTB21 level in human MV4-11 cells assessed as fold change at 100 nM measured after 4 hrs; format: functional
# [9] = Effect on PLK1 level in human MV4-11 cells assessed as fold change at 100 nM measured after 4 hrs; format: functional
# [10] = Clearance in female CD1 mouse at 3 mg/kg, iv measured upto 24 hrs by LC-MS/MS analysis; format: ADME, organism-based; details: in vivo
# [11] = Effect on BRD2 level in human MV4-11 cells assessed as fold change at 100 nM measured after 4 hrs; format: functional
# [12] = Effect on CDC42EP3 level in human MV4-11 cells assessed as fold change at 100 nM measured after 4 hrs; format: functional
# HD-MB03 = assay: Cytotoxicity against human HD-MB03 cells assessed as reduction in cell viability incubated for 72 hrs by cell-titer glo assay; format: functional, cell-based; details: HD-MB03, 72 h
# [13] = Effect on FYTTD1 level in human MV4-11 cells assessed as fold change at 100 nM measured after 4 hrs; format: functional
# [14] = Effect on MCL1 level in human MV4-11 cells assessed as fold change at 100 nM measured after 4 hrs; format: functional
# [15] = Terminal elimination half life in female CD1 mouse at 3 mg/kg, iv measured upto 24 hrs by LC-MS/MS analysis; format: ADME, organism-based; details: in vivo, read-out: beta t1/2 (converted)
# [16] = molecular target: T2, Protein cereblon/Bromodomain-containing protein 4/DNA damage-binding protein 1 (Homo sapiens) (UniProt O60885+Q96SW2+Q16531); assay: Binding affinity to his-tagged CRBN/DDB1/GST-tagged BRD4 (49 to 170 residues)(unknown origin) assessed as ternary complex formation by measuring AUC incubated for 1 hr by luminescence based Alphascreen assay; format: protein assay
# [17] = Chemical stability in human HD-MB03 cell culture media at 400 uM measured upto 72 hrs by UPLC analysis; format: physicochemical
# [18] = molecular target: T1, Protein cereblon/Bromodomain-containing protein 4; assay: PROTAC activity at CRBN/Hibit-tagged BRD4 (unknown origin) expressed in HEK293 cells co-expressing LgBiT assessed as degradation of BRD4 incubated for 24 hrs by […] glo-max assay relative to control; format: cell-based
# MV4-11 [19] = assay: Upregulation of p53 level in human MV4-11 cells measured after 4 hrs by immunoblot analysis; format: functional, cell-based
# [20] = Cmax in female CD1 mouse at 10 mg/kg, po measured upto 24 hrs by LC-MS/MS analysis; format: ADME, organism-based; details: in vivo
# [21] = Effect on NOP53 level in human MV4-11 cells assessed as fold change at 100 nM measured after 4 hrs; format: functional
# [22] = Metabolic stability in mouse liver microsomes assessed as half life; format: ADME, Microsome; details: liver microsomes
# [23] = Effect on MYC level in human MV4-11 cells assessed as fold change at 100 nM measured after 4 hrs; format: functional
# HEK293 = assay: Cytotoxicity against HEK293 cells expressing LgBiT fused HiBiT-BRD2 measured after 24 hrs by cell titer-glo assay; format: toxicity, cell-based; details: human, hek293, 24 h
# [24] = molecular target: Protein cereblon/Bromodomain-containing protein 2 (Homo sapiens) (UniProt P25440+Q96SW2); assay: PROTAC activity at CRBN/BRD2 in human MV4-11 cells assessed as degradation of BRD2 incubated for 4 hrs by immunoblot analysis relative to control; format: cell-based
# [25] = AUC in female CD1 mouse at 3 mg/kg, iv measured upto 24 hrs by LC-MS/MS analysis; format: ADME, organism-based; details: in vivo
# [26] = Effect on BRD3 level in human MV4-11 cells assessed as fold change at 100 nM measured after 4 hrs; format: functional
# [27] = Effect on NSA2 level in human MV4-11 cells assessed as fold change at 100 nM measured after 4 hrs; format: functional
# [28] = Effect on RNF166 level in human MV4-11 cells assessed as fold change at 100 nM measured after 4 hrs; format: functional
# [29] = Effect on TP53 level in human MV4-11 cells assessed as fold change at 100 nM measured after 4 hrs; format: functional
# [30] = Oral bioavailability in female CD1 mouse at 10 mg/kg measured upto 24 hrs by LC-MS/MS analysis; format: ADME, organism-based; details: in vivo
# [31] = Permeability in MDCK-II cells incubated for 1 hr by UPLC/MS/UV analysis; format: ADME, cell-based, Canis lupus familiaris; details: dog, read-out: permeability
# [32] = Volume of distribution in female CD1 mouse at 3 mg/kg, iv measured upto 24 hrs by LC-MS/MS analysis; format: ADME, organism-based; details: in vivo
# [33] = Kinetic aqueous solubility of the compound at pH 7.4; format: physicochemical; details: read-out: Kinetic_solubility
# [34] = Effect on CCNF level in human MV4-11 cells assessed as fold change at 100 nM measured after 4 hrs; format: functional
# [35] = Effect on PLAU level in human MV4-11 cells assessed as fold change at 100 nM measured after 4 hrs; format: functional
# [36] = Effect on CCND3 level in human MV4-11 cells assessed as fold change at 100 nM measured after 4 hrs; format: functional
# MV4-11 [37] = assay: Downregulation of c-Myc level in human MV4-11 cells measured after 4 hrs by immunoblot analysis; format: functional, cell-based
# MV4-11 [38] = assay: Cytotoxicity against human MV4-11 cells assessed as reduction in cell viability incubated for 72 hrs by cell-titer glo assay; format: functional, cell-based; details: MV4-11, 72 h
# [39] = molecular target: T1, Protein cereblon/Bromodomain-containing protein 4; assay: PROTAC activity at CRBN/Hibit-tagged BRD4 (unknown origin) expressed in HEK293 cells co-expressing LgBiT assessed as degradation of BRD4 incubated for 24 hrs by […] glo-max assay; format: cell-based
# [40] = Stability in mouse plasma assessed as half life by UPLC-MS/MS analysis; format: ADME, cell-free
# [41] = Effect on FGL2 level in human MV4-11 cells assessed as fold change at 100 nM measured after 4 hrs; format: functional
# [42] = Effect on AURKA level in human MV4-11 cells assessed as fold change at 100 nM measured after 4 hrs; format: functional
# [43] = Effect on ZFP36L2 level in human MV4-11 cells assessed as fold change at 100 nM measured after 4 hrs; format: functional
# [44] = Chemical stability in human MV4-11 cell culture media at 400 uM measured upto 72 hrs by UPLC analysis; format: physicochemical
# [45] = molecular target: T2, Protein cereblon/Bromodomain-containing protein 4/DNA damage-binding protein 1 (Homo sapiens); assay: Binding affinity to his-tagged CRBN/DDB1/GST-tagged BRD4 (49 to 170 residues)(unknown origin) assessed as ternary complex formation (AUC) incubated for 1 hr by luminescence based Alphascreen assay; format: protein assay
# [46] = molecular target: Protein cereblon/Bromodomain-containing protein 3 (Homo sapiens) (UniProt Q15059+Q96SW2); assay: PROTAC activity at CRBN/BRD3 in human MV4-11 cells assessed as degradation of BRD3 incubated for 4 hrs by immunoblot analysis relative to control; format: cell-based
# [47] = molecular target: Protein cereblon (Homo sapiens) (UniProt Q96SW2); assay: Binding affinity to CRBN (unknown origin)
smiles,measurement,setting,value
Cc1sc2c(c1C)C(c1ccc(Cl)cc1)=N[C@@H](CC(=O)NCCCCNC(=O)COc1cccc3c1C(=O)N(C1CCC(=O)NC1=O)C3=O)c1nnc(C)n1-2 (some centres undefined),Ratio,[1],140
same,half-life,[2],4.2 h
same,half-life,[3],4.2 h
Cc1sc2c(c1C)C(c1ccc(Cl)cc1)=N[C@@H](CC(=O)N1CCC(CN3CCN(c4ccc(C5CCC(=O)NC5=O)cc4)CC3)CC1)c1nnc(C)n1-2 (some centres undefined),AUC(0-t) at 24 h,[4],8060 ng·h/mL
same,Activity,[5],0.292 fRLU/hr
same,fold change (FC),[6],-3.85
same,DC50,[7],0.127 nM
same,fold change (FC),[8],-0.15
same,fold change (FC),[9],-0.81
same,clearance,[10],8.85 mL/min/kg
same,fold change (FC),[11],-3.52
same,fold change (FC),[12],-1.38
same,IC50,HD-MB03,0.92 nM
same,fold change (FC),[13],-1.67
same,fold change (FC),[14],-1.21
same,half-life,[15],3.4 h
same,AUC,[16],281000
same,Stability,[17],Stable
same,Emax,[18],96.9%
same,Activity,MV4-11 [19],Active
same,Cmax,[20],2440 ng/mL
same,fold change (FC),[21],-0.91
same,half-life,[22],1.3 h
same,fold change (FC),[23],-2.05
same,Activity,HEK293,Non-toxic
same,Activity,[24],> 90%
same,AUC at 24 h,[25],5540 ng·h/mL
same,fold change (FC),[26],-3.85
same,fold change (FC),[27],-1.05
same,fold change (FC),[28],-0.12
same,fold change (FC),[29],1.92
same,bioavailability,[30],45%
same,Papp at 1 h,[31],1.7 ×10⁻⁶ cm/s
same,Vd,[32],0.85 L/kg
same,solubility kinetic,[33],48.4 µM
same,fold change (FC),[34],-1.13
same,fold change (FC),[35],-1.2
same,fold change (FC),[36],-0.99
same,Activity,MV4-11 [37],Active
same,IC50,MV4-11 [38],0.12 nM
same,DC50,[39],0.19 nM
same,half-life,[40],7.3 h
same,fold change (FC),[41],-1.16
same,fold change (FC),[42],-0.97
same,fold change (FC),[43],-1.18
same,Stability,[44],Stable
same,Activity,[45],Active
same,Activity,[46],> 90%
same,Activity,[47],Active
